Test results published in patent publication US20210228511A1, “NEURONAL AGONISTS AND ISOTONIC OR HYPERTONIC SALINE FOR TREATING RESPIRATORY DISEASES” (University of Saskatchewan, priority 2020, published 2021).
Like-named read-outs stand apart in the source and are kept apart here.

Assays:
[1] = system: ex vivo swine trachea preparations; experiment: Mucociliary clearance assay, tantalum disk movement on excised swine trachea
live wild-type swine = experiment: ASL layer height by synchrotron phase contrast imaging, live wild-type swine; details: added alone to HTS, WT swine in vivo, lesser extent than with capsaicin, FIG. 11
airway submucosal glands = experiment: Fluid secretion assay of airway submucosal glands (droplets under oil); details: WT swine, FIG. 12
Method: To confirm that both exemplary neuronal agonists capsaicin and menthol stimulate active fluid secretion by airway submucosal glands in WT swine, the effect of exemplary neuronal agonists menthol and capsaicin was on fluid secretion rate was measured using the secretion assay as described elsewhere^21. The mucosal layer from trachea or primary bronchus, with underlying glands, was dissected from the cartilage. A piece of tissue of about 1 cm^2 was pinned mucosal side up and mounted in a 35-mm-diameter plastic Petri dish lined with Sylgard (Dow Corning Corp). The serosal side was immersed in a bathing solution ( 1 ml volume), and the mucosa was in air. Before experimentation, the mucosal surface was gently cleaned and blotted dry with cotton swabs and further dried with a stream of air, after water-saturated mineral oil was placed on the surface.

isolated swine trachea = experiment: ASL layer height by synchrotron phase contrast imaging, isolated wild-type swine trachea (ex vivo)
[2] = ex vivo wild-type trachea, HTS 7% w/v NaCl, 18 min

## C=C(C)[C@@H]1CC[C@@H](C)C[C@H]1O [(−)-isopulegol, (1R,2S,5R)-2-Isopropenyl-5-methylcyclohexanol]
[1]; wild-type swine ex vivo, added to HTS, measured at 0, 90 and 150 min, FIG. 15
  duration of HTS-triggered mucociliary clearance: extended the duration of HTS-triggered mucociliary clearance

## CC1CCC(C(C)C)C(O)C1 (stereo not shown) [menthol, 5-Methyl-2-(propan-2-yl)cyclohexan-1-ol]
Live wild-type swine
  duration of treatment: increase the intensity and duration of treatment
  intensity of treatment: increase the intensity and duration of treatment
Airway submucosal glands
  ASL secretion by the submucosal glands: triggers significant ASL secretion

## COc1cc(CNC(=O)CCCC/C=C/C(C)C)ccc1O [capsaicin, (6E)-N-[(4-Hydroxy-3-methoxyphenyl)methyl]-8-methylnon-6-enamide]
Airway submucosal glands
  ASL secretion by the submucosal glands: triggers significant ASL secretion
[1]; WT swine airways, added to HTS, FIG. 13
  HTS-triggered increase in mucociliary clearance: augmented
[1]; WT swine airways, added to ITS, FIG. 13
  ITS-triggered increase in mucociliary clearance: augmented

## CN1[C@@H]2CC[C@H]1C[C@@H](OC(=O)C(CO)c1ccccc1)C2 (stereo partly shown) [atropine]
Isolated swine trachea
  effect on ASL layer height in ITS-treated preparations: had no effect
  effect on HTS-triggered ASL layer height increase: reduced HTS-triggered ASL secretion
  effect on ITS-treated preparations incubated with CFTRinh172: had no effect
  effect on response to HTS treatment in preparations incubated with CFTRinh172: reduced the response to HTS treatment

## N=C(N)NC(=O)c1nc(Cl)c(N)nc1N [amiloride]
Isolated swine trachea; [2]
  effect on HTS-triggered ASL layer height increase: did not affect HTS treatment

## O=C(O)c1ccc(/C=C2\SC(=S)N(c3cccc(C(F)(F)F)c3)C2=O)cc1 [CFTRinh172]
Isolated swine trachea; wild-type swine trachea preparations ex vivo, FIG. 8
  effect on HTS-triggered ASL secretion, time course: decreases the effect of HTS on ASL secretion

## Ic1ccccc1CN[C@@H]1C2CCN(CC2)[C@@H]1C(c1ccccc1)c1ccccc1 [L-703606]
Isolated swine trachea; [2]
  effect on HTS-triggered ASL layer height increase: significantly reduced
Isolated swine trachea; ex vivo wild-type trachea, ITS 0.9% w/v NaCl, 18 min
  effect on ASL layer height in ITS-treated preparations: had no effect
Isolated swine trachea; ex vivo, CFTRinh172 100 μM (model of airways without CFTR function), 18 min
  effect on response to HTS treatment in preparations incubated with CFTRinh172: unaffected
